US9701962B2, “Hydrophobically modified antisense oligonucleotides comprising a ketal group” (Institut National de la Sante et de la Recherche Medicale …, priority 2013, dated 2017)
Strand notation (5' to 3'): a small letter for the sugar, then the base; units joined by * are phosphorothioate-linked, units joined directly phosphodiester-linked; [ ] holds rarer units or linkages, { } end groups; capitals alone tell only the bases. {(C15)2U} = uridine bearing a ketal whose carbon carries two C15 hydrocarbon chains (palmitone ketal); {C8F17} = hydrophobic mono-chain with C8F17 fluorocarbon moiety; d = 2'-deoxy (DNA)

Key:
[1] = test system: TCTP protein and cell growth; assay: Screening of ASOs targeting TCTP mRNA for the lead sequence; type: cell-based, human; conditions: 15 sequences tested
Experimental: The design, synthesis and screening of ASOs targeting TCTP mRNA were performed to determine the lead sequence. Among the 27 sequences, 12 were withdrawn (lack of specificity, high GC percentage) and 15 have been tested among which, 3 have been selected (#10 of sequence SEQ ID NO: 2, #14 of sequence SEQ ID NO: 7, #15 of sequence SEQ ID NO: 6) for their efficiency to inhibit TCTP protein and cell growth.

[2] = test system: TCTP protein; assay: TCTP protein expression by western blot in transfected PC-3 cells; type: cell-based, human; conditions: for inhibition of TCTP protein expression over a long period: 6 days after transfection
Experimental: The CR prostate cancer cell line PC-3 was purchased from the American Type Culture Collection (Rockville, Md., USA). The cells were maintained in Dulbecco's Modified Eagle's Medium (Invitrogen, Cergy Pontoise, France), supplemented with 10% fetal calf serum (FCS).
Prostatic cell line were transfected with ASO#15PD, ASO#15PTO, LASO#15PD, LASO#15PTO and LASO#15LNA at various concentrations (from 30 nM to 100 nM), in OptiMEM® medium (Invitrogen), without serum and in the presence or not of Oligofectamine™ transfection reagent (Invitrogen), according to the manufacturer's instructions.
Serum was added 4 hours after transfection. Two or three days after transfection, the level of TCTP protein expression and GAPDH (used as housekeeping gene) were determined by performing western blotting.
Western Blot analysis was performed as described previously (Rocchi et al., 2004, Cancer Res. 64:6595-602) with 1:2000 rabbit TCTP polyclonal antibody (Abcam Inc., Cambridge, UK). Loading levels were normalized using 1:5000 rabbit anti-glyceraldehyde-3-phosphate dehydrogenase polyclonal (Abcam Inc.).
Prostatic cell line were transfected with FASO#15PTO at 100 nM, in OptiMEM® medium (Invitrogen), without serum and in the presence or not of Oligofectamine™ transfection reagent (Invitrogen), according to the manufacturer's instructions.

[3] = test system: cell membrane; assay: Penetration of the cell membrane; type: cell-based; conditions: compared with ASO#15PTO

Substance	efficiency to inhibit TCTP protein and cell growth [1]	inhibition of TCTP protein expression over a long period [2]	other results
5′-AACTTGTTTCCTGCAGGTGA-3′ (antisense (5'-AACTTGTTTCCTGCAGGTGA-3'); as printed in the source, key not given here) [#15]	selected	–	–
Flurocarbon 5′AAC TTG TTT CCT GCA GGT GA3′ (DNA {C8F17}-dA*dA*dC*dT*dT*dG*dT*dT*dT*dC*dC*dT*dG*dC*dA*dG*dG*dT*dG*dA) [FASO#15PTO, reference compound]	–	–	inhibition of TCTP protein expression ([2]; PC-3, 100 nM, absence of Oligofectamine, 3 days after transfection): incapable of inhibiting; inhibition of TCTP protein expression ([2]; PC-3, 100 nM, presence of Oligofectamine, 3 days after transfection): incapable of inhibiting
ASO#15PTO: DNA of sequence SEQ ID NO: 6 with a phosphorothiorate backbone (DNA dA*dA*dC*dT*dT*dG*dT*dT*dT*dC*dC*dT*dG*dC*dA*dG*dG*dT*dG*dA) [reference compound]	–	not the case	–
5′-ACCAATGAGCGAGTCATCAA-3′ (antisense (5'-ACCAATGAGCGAGTCATCAA-3'); as printed in the source, key not given here) [#10]	selected	–	–
5′-TGGTTCATGACAATATCGAC-3′ (antisense (5'-TGGTTCATGACAATATCGAC-3'); as printed in the source, key not given here) [#14]	selected	–	–
(C15)2U*5′AAC TTG TTT CCT GCA GGT GA3′ (DNA {(C15)2U}*dA*dA*dC*dT*dT*dG*dT*dT*dT*dC*dC*dT*dG*dC*dA*dG*dG*dT*dG*dA) [LASO#15PTO]	–	strong to complete inhibition	inhibition of TCTP protein expression ([2]; PC-3, in absence of transfection agent, 3 days after transfection): able to inhibit; inhibition of TCTP protein expression ([2]; PC-3, in the presence of Oligofectamine, 30-100 nM, 2 or 3 days after transfection): most efficient; speed of penetrating the cell membrane [3]: more quickly than ASO#15PTO
